The values below come from US4759917A, “Oxidative dissolution of gallium arsenide and separation of gallium from arsenic” (priority 1987, dated 1988).

Data set [1] in a line: Example 2: complexing agents with hydrogen peroxide to oxidize and dissolve gallium arsenide (Table 3).
A short description of data set [2]: Aqueous solubilities of N-alkylalkano and N-H hydroxamic acids (Table 1). The data set is classed as physicochemical. The text has this:
It is desirable that the N-organo hydroxamic acid have low solubility in water in order to effect ready separation of the chelated gallium from the aqueous oxidizing medium.
For the extraction to occur, it is necessary that the extractant have some slight solubility in the aqueous Ga-containing medium.

Data set [3] is described as follows: Hydrolysis of hydroxamic acids in gallium extraction, washing and stripping procedures (Table 2). In kind it is physicochemical. Particulars: hydrolysis after gallium extraction, spectrophotographic analysis. On the procedure:
The extent of hydrolysis of some hydroxamic acids used in some gallium extraction, washing and stripping procedures was determined by spectrophotographic analysis of the solution after completion of the procedures, with results as reported in Table 2.
The procedures and further information on the hydrolytic stability of N-alkyl hydroxamic acids are reported in the aforesaid copending application Ser. No. 937,849. The hydrolytic stability of the N-alkyl hydroxamic acids is an advantage for their use in the present invention.

A short description of data set [4]: Example 4: oxidizing agents with N-methylnonanohydroxamic acid as complexing agent on gallium arsenide (Table 5). On the procedure:
A series of procedures were conducted to test effectiveness of various complexing agents with hydrogen peroxide to oxidize and effect dissolution of gallium arsenide. A 0.5 gram amount of GaAs powder was added to a 50 ml beaker with 20 ml deionized water. The complexing agent was added with stirring, followed by addition of 5 ml 30% hydrogen peroxide in water with stirring. Stirring was continued for about 10 minutes with gradual heating on a hot plate to 85° C., with observation for reaction. The mixtures were then allowed to stand at room temperature for about four days with observation for further changes, and the percentage of the starting gallium which had dissolved was determined by analysis of the liquid by atomic absorption.
Using the procedure of Example 2 and 3.0 ml of N-methylnonanohydroxamic acid as complexing agent, a number of oxidizing agents were employed with gallium arsenide, with results as reported in Table 5.

Where [5] appears, read: 0.5 g GaAs, 20 ml water, 5 ml 30% H2O2, heated to 85° C. about 10 min, then about four days at room temp.
[6] abbreviates: observation during about 10 min stirring with heating to 85° C., H2O2.
Setting [7] is: 3.0 ml N-methylnonanohydroxamic acid as complexing agent.

Where “and” joins values, the source holds several entries; their conditions need not be identical. Equal entries are not always repeated. Structures can show the parent of a compound that is named as a salt. Where two headings read alike, the source gives them in different places.

In the case of `[Na+].[OH-]` [NaOH, sodium hydroxide], the “% Ga in Solution After 4 Days” value in data set [1] was determined as 100%.
Turning to `O=P([O-])([O-])OP(=O)([O-])OP(=O)([O-])[O-].[Na+].[Na+].[Na+].[Na+].[Na+]` [Sodium Triphosphate], the “% Ga in Solution After 4 Days” value in data set [1] came out at 100%.
Turning to `CCCCCCCCCCCCCCCC(=O)N(C)O` [N--methylhexadecanohydroxamic acid], in data set [2], the “Solubility (25° C.)” value is recorded as 1.3 ± 1 ppm and the “Solubility (25° C.), molarity” value is listed as 4.60 × 10^-6 molarity.
On to `CC(O)(P(=O)(O)O)P(=O)(O)O` [Dequest ® 2010], for which the “% Ga in Solution After 4 Days” value in data set [1] is given as 100%. For the same molecule, the “effectiveness in reaction and dissolution of gallium arsenide” value (shortened to “effectiveness”) in data set [1] (H2O2 as oxidizing agent) is listed as “works well”.
Regarding “naphthenohydroxamic acid [N--H naphthenohydroxamic acid, reference compound]”, the “% Decomposition” value in data set [3] worked out at 45.0%.
On to `CCCCCCCCCC(=O)N(O)CCCCCC` [N--hexyldecanohydroxamic acid], for which, in data set [2], the “Solubility (25° C.)” value is on record as 1.6 ± 1 ppm and the “Solubility (25° C.), molarity” value is on record as 5.71 × 10^-6 molarity.
For `CCCCCCCCCC(CCCCCCCCC)N(O)C(=O)C1CCCCC1` [N-(1-nonyldecyl) cyclohexanohydroxamic acid], in data set [2], the “Solubility (25° C.)” value came to 0.7 ± 1 ppm and the “Solubility (25° C.), molarity” value was 1.7 × 10^-6 molarity.
`O.O=P([O-])(O)O.[Na+]` [NaH2 PO4.H2 O]: in data set [1] (setting [5]), the “% Ga in Solution After 4 Days” value was determined as 0%. In data set [1] (setting [6]), the “Initial Result” value is reported as “No reaction”.
With `CCCCCCCC(=O)NO` [octanohydroxamic acid], the “Initial Result: % dissolved in 24 hrs.” value in data set [1] (1.48 grams, omitted heating, 24 hrs.) is reported as 52.5%. Further, in data set [1] (omitted heating, after addn. of 10 ml n-BuOH, H2O2), the “% Ga in Solution After 4 Days (after addn. of 10 ml n-BuOH)” value is recorded as 100%.
Regarding `O=C(O)CC(O)(CC(=O)O)C(=O)O` [Sodium citrate], the “% Ga in Solution After 4 Days” value in data set [1] amounted to 100%.
As to `Oc1cccc2cccnc12` [Oxine (8-hydroxy quinoline), 8-hydroxy quinoline], the “Initial Result” value in data set [1] is given as “Precipitate”.
With `II`, in data set [4] (setting [7]), the “Result: time to complete reaction, no heating” value was 60 s.
Consider “N-n-propyl naphthenohydroxamic acid [N--Propyl naphthenohydroxamic acid]”, for which, in data set [3], the “% Decomposition” value is recorded as “+0.74%”.
For the molecule `O=C(O)CN(CCN(CC(=O)O)CC(=O)O)CC(=O)O` [Ethylene diamine tetracetic acid], the “% Ga in Solution After 4 Days” value in data set [1] is on record as 84.2%.
As to `[K+].[OH-]` [KOH, potassium hydroxide], in data set [1], the “Initial Result” value was “No reaction”.
For `O=P([O-])(O)O.[Na+]` [Monobasic sodium phosphate (NaH2 PO4), Monobasic sodium phosphate], the “% Ga in Solution After 4 Days” value in data set [1] (setting [5]) turned out to be 0%. In addition, in data set [1] (setting [6]), the “Initial Result” value is reported as “No reaction”.
With “N-ethyl naphthenohydroxamic acid [N--Ethyl naphthenohydroxamic acid]”, the “% Decomposition” value in data set [3] is -0.53%.
On to `CCCCCCCCCC(=O)N(C)O` [N--methyldecanohydroxamic acid], for which, in data set [2], the “Solubility (25° C.)” value is 111. ppm and 82. ppm.
In the case of `O=P([O-])([O-])O.[Na+].[Na+]` [Disbasic Sodium phosphate (Na2 HPO4), Disbasic Sodium phosphate], in data set [1], the “% Ga in Solution After 4 Days” value amounted to 100%; the “effectiveness” value is “effective in causing dissolution, but at a slow rate and with some white precipitate formation”.
Regarding `CC(=O)NO` [Acetohydroxamic Acid], the “Initial Result: time to complete dissolution” value in data set [1] came out at 25 min. For the same molecule, the “Initial Result: % reacted in 30 min.” value in data set [1] (0.62 grams, omitted heating, 30 min.) is listed as 80%. The “% Ga in Solution After 4 Days (omitted heating)” value (“% Ga … (omitted heating)” below) in data set [1] (omitted heating, H2O2) was determined as 100%.
Take `BrBr` [liquid bromine, bromine]: the “Result: time to complete reaction, no heating” value in data set [4] (setting [7]) is 37 s.
For the molecule `O=[N+]([O-])O` [HNO3 conc., nitric acid], in data set [4] (setting [7]), the “Result: time to complete reaction” value worked out at 50 s. Moreover, the “Result: time to complete reaction, no complexing agent” value in data set [4] (no complexing agent) is 20 min.
“N-methyl naphthenohydroxamic acid [N--Methyl naphthenohydroxamic acid]”: in data set [3], the “% Decomposition” value is recorded as “+0.14%”. For the same molecule, in data set [1] (2.98 grams added to Test N mixture after no reaction in 11.5 min.), the “time to complete dissolution after addition to Test N mixture” value is 60 s. Besides, in data set [1] (H2O2 as oxidizing agent), the “effectiveness” value was “rapid reaction and dissolution of the gallium arsenide”.
On to `CCCCCCCCCc1ccc(O)cc1` [4-nonylphenol], for which, in data set [1], the “% Ga in Solution After 4 Days” value is on record as 0% and the “Initial Result” value is on record as “No reaction”.
`O=C(O)C(=O)O` [Sodium oxalate]: in data set [1], the “% Ga in Solution After 4 Days” value is given as 100%. For the same molecule, the “Initial Result: time to complete reaction” value in data set [1] (heating to 85° C., H2O2) worked out at 1 min. Further, in data set [1] (setting [6]), the “Initial Result” value was “small prec”.
Regarding `C=CC(CC(C)(C)CC(C)(C)C)c1ccc2cccnc2c1O` (stereo not shown) [Kelex ® 100], the “% Ga in Solution After 4 Days” value in data set [1] was found to be 0%.
Regarding `O=C(O)CN(CC(=O)O)CC(=O)O` [Sodium nitrilo triacetate], in data set [1], the “% Ga in Solution After 4 Days” value came out at 100%. The “Initial Result: time to complete reaction” value in data set [1] (heating to 85° C., H2O2) is 3 min.
Take `CCCCC(CC)COP(=O)(O)OCC(CC)CCCC` (stereo not shown) [Di-(2-ethylhexyl) phosphoric acid]: in data set [1], the “% Ga in Solution After 4 Days” value was 0% and the “Initial Result” value is given as “No reaction”.
For the molecule `O=P(O)(O)CCP(=O)(O)O` [H2 O3 PCH2 CH2 PO3 H2, ethylene diphosphonic acid], the “effectiveness” value in data set [1] (H2O2 as oxidizing agent) is “an insoluble gallium complex may form and precipitate from the aqueous oxidizing medium”. Also, the “Initial Result: time to complete reaction” value in data set [1] (heating to 85° C., H2O2) came out at 3 min.
Regarding `O=P([O-])([O-])OP(=O)([O-])[O-].[Na+].[Na+].[Na+].[Na+]` [Sodium pyrophosphate Na4 P2 O7, Sodium pyrophosphate], in data set [1], the “% Ga in Solution After 4 Days” value is listed as 100%, the “Initial Result” value is “white prec” and the “Initial Result: time to complete reaction (min)” value was 3.
With `O=P(O)(O)O` [Potassium phosphate (K3 PO4), Potassium phosphate], in data set [1], the “% Ga in Solution After 4 Days” value turned out to be 100% and the “Initial Result: time to complete reaction (secs)” value turned out to be 50.
For the molecule `O=S(=O)([O-])OOS(=O)(=O)[O-].[K+].[K+]` [Potassium persulfate], the Result entry in data set [4] (setting [7]) is recorded as “No reaction”.
Consider “versatohydroxamic acid [versatohydroxamic acid (not N--alkyl), reference compound]”, for which, in data set [2], the “Solubility (25° C.)” value was determined as 1600. ppm and the “Solubility (25° C.), molarity” value is reported as 8.54 × 10^-3 molarity.
Turning to `CCCCCCCCCCCC(=O)NO` [dodecanohydroxamic acid], in data set [1] (H2O2 as oxidizing agent), the “effectiveness” value is on record as “reaction did not occur”. For the same molecule, in data set [1] (setting [6]), the “Initial Result” value was “No reaction”. Moreover, the “% Ga … (omitted heating)” value in data set [1] (omitted heating, H2O2) stood at 100%. In addition, in data set [1] (with 10 ml 2-ethyl hexanol, omitted heating, H2O2), the “Initial Result: time to complete reaction” value stood at 360 min. Also, the “Initial Result in 15 min.” value in data set [1] (with 10 ml 2-ethyl hexanol, omitted heating, mild exotherm, 15 min.) is listed as “Some reaction”. Also, the “time for complete reaction” value in data set [1] (with a solvent (Test ε)) is on record as “about 6 hours”.
For `CCCCCCCCCC(=O)N(O)C(C)C` [N--isopropyldecanohydroxamic acid], in data set [2], the “Solubility (25° C.)” value is 3.9 ± 1 ppm and the “Solubility (25° C.), molarity” value is given as 1.68 × 10^-5 molarity.
Take neotridecanohydroxamic acid: in data set [2], the “Solubility (25° C.)” value came out at 328. ppm and the “Solubility (25° C.), molarity” value is given as 1.43 × 10^-3 molarity.
Take `CC(=O)N(C)O` [Nmethyl acetohydroxamic acid, N-methyl acetohydroxamic acid]: in data set [1], the “Initial Result: time to complete dissolution” value stood at 5 min. In addition, the “Initial Result: % reacted in 10 min.” value in data set [1] (0.80 grams, omitted heating, 10 min.) is listed as 90%. Moreover, the “effectiveness” value in data set [1] (H2O2 as oxidizing agent) was “the chelated gallium does not readily separate from the aqueous oxidation medium”. Besides, the “% Ga … (omitted heating)” value in data set [1] (omitted heating, H2O2) is on record as 100%.
